Reference: patent US12351580B2, “NLRP3 modulators” (Innate Tumor Immunity, Inc., priority 2017, dated 2025)
pEC50: −log10 of the molar value.

Each compound was assayed against T1, hNLRP3 (Homo sapiens, UniProt Q96P20) (assay: Measurement of IL-1β production in PMA-differentiated THP-1 cells (hNLRP3 agonist; ELISA, alternative and hTRF procedures)).
T1 construct: THP-1 cells were purchased from the American Type Culture Collection; host or cells: THP-1 cells, PMA-differentiated
Type: cell-based
Method in brief: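 PMA-differentiated THP-1 cells (PMA […] 24 h, 20 μg/ml overnight, or 50 ng/ml overnight, by procedure) replated in RPMI with 2% FBS and exposed to compound (e.g. 100–0.1 μM, 1% DMSO; hTRF format top 10 μM) for 4 h, 2 h, or 2 h respectively. Supernatant IL-1β measured by ELISA, or by hTRF with antibodies diluted 1:40.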

T1 sequence (Q96P20 whole entry): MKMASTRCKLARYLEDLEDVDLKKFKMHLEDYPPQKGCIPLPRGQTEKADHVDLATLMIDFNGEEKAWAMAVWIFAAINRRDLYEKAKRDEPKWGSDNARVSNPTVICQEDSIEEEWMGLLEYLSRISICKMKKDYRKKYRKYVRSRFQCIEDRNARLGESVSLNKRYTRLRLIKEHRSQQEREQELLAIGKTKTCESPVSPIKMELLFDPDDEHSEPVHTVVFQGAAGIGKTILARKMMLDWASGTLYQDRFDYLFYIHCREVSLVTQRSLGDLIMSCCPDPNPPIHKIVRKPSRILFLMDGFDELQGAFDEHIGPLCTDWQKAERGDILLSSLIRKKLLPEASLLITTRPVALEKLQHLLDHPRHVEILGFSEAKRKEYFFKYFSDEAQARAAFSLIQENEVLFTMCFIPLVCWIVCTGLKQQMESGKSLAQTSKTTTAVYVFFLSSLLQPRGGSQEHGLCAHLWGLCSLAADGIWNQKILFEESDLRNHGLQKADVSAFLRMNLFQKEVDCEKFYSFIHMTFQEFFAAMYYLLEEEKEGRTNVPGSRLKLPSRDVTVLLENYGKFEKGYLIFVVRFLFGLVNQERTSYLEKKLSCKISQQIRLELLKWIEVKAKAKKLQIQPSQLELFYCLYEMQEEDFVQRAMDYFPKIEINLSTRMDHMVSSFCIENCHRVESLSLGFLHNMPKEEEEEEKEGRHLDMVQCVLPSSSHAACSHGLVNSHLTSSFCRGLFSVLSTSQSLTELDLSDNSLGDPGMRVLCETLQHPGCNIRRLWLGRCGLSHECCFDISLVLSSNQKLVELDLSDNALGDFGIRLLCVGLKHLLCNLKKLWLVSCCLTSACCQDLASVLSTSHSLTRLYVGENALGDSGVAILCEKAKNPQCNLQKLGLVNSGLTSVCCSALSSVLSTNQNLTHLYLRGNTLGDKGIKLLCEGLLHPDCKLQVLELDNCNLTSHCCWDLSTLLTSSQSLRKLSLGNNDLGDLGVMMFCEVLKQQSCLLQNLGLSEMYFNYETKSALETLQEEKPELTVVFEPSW

Row | SMILES | pEC50
1 | CCC(=O)N(CC)Cc1nc2c(N)nc3cc(-n4cccn4)ccc3c2n1CCO [Compound 478, N-{[4-amino-1-(2-hydroxyethyl)-7-(1H-pyrazol-1-yl)-1H-imidazo[4,5-c]quinolin-2-yl]methyl}-N-ethylpropanamide] | 5.43
2 | CCN(Cc1nc2c(N)nc3cc(-n4cccn4)ccc3c2n1CC)C(C)=O [Compound 479, N-{[4-amino-1-ethyl-7-(1H-pyrazol-1-yl)-1H-imidazo[4,5-c]quinolin-2-yl]methyl}-N-ethylacetamide] | 6.17
3 | CCC(=O)N(CC)Cc1nc2c(N)nc3cc(-c4cccs4)ccc3c2n1CC [Compound 480, N-{[4-amino-1-ethyl-7-(thiophen-2-yl)-1H-imidazo[4,5-c]quinolin-2-yl]methyl}-N-ethylpropanamide] | 5.72
4 | CCC(=O)N(CC)Cc1nc2c(N)nc3cc(-n4cccn4)ccc3c2n1CC [Compound 481, N-{[4-amino-1-ethyl-7-(1H-pyrazol-1-yl)-1H-imidazo[4,5-c]quinolin-2-yl]methyl}-N-ethylpropanamide] | 6.20
5 | CCN(Cc1nc2c(N)nc3cc(-c4cccs4)ccc3c2n1CCO)C(C)=O [Compound 482, N-{[4-amino-1-(2-hydroxyethyl)-7-(thiophen-2-yl)-1H-imidazo[4,5-c]quinolin-2-yl]methyl}-N-ethylacetamide] | 6.37
